Data published in patent publication US8007790B2, “Methods for treating polycystic kidney disease (PKD) or other cyst forming diseases” (Stowers Institute for Medical Research, priority 2006, dated 2011).
{P} = phosphate

What was measured:
FIP2 [1] = test: Immunoblot of FIP2 level in TNF-alpha treated IMCD cells; format: cell-based
Description: (§1) The disruption of PC2 localization by TNF-alpha was further confirmed using immunoprecipitation, western blotting, and a TUNEL Assay. Immunoprecipitation and Western blotting were performed on whole-cell lysates as previously described. Li et al, Polycystin-1 and polycystin-2 regulate the cell cycle through the helix-loop-helix inhibitor Id2. Nat Cell Biol, 7(12):1202-12 (2005). The antibodies used for Western blotting included rabbit polyclonal anti-FIP2 51, rabbit anti-PC2 polyclonal antibody 96525 50, rabbit anti-PC1 polyclonal antibody 96521, rabbit anti-Rab8 polyclonal antibody and rabbit anti-TNFR-I polyclonal antibody. Secondary antibodies used included: goat-anti-rabbit IgG-fluorescein isothiocyanate (FITC Molecular Probes, Eugene, Oreg.), goat-anti-mouse IgG-Texas Red, (1:500 dilution; Molecular Probes). For western blotting, goat-anti-rabbit IgG-horseradish peroxidase (HRP or goat-anti-mouse IgG-HRP, 1:10,000 dilution; Amersham Pharmacia Biotech) were used as secondary antibodies.
(§2) Primary cell cultures were prepared as described previously. The cells were propagated in DMEM/F12 supplemented with 5% FBS, 5 μg/ml insulin, 5 μg/ml transferrin and 5 ng/ml sodium selenite (ITS) and 100 IU/ml penicillin G and 0.1 mg/ml streptomycin. […]

IMCD cells = format: cell-based
Description: To confirm that localization of PC2 was not due to cell death, a TUNEL Assay was performed. Cells treated with or without TNF-alpha were fixed with 4% PFA. The TUNEL assay was performed using a fluorescent apoptosis-detection system (R&D systems, Minneapolis, Minn.) according to the manufacturer's instructions. Fixed cells were treated with TACS-nuclease for the positive control.

Pkd2+/- mice [2] = test: Cyst formation in Pkd2+/- mice injected with TNF-alpha; format: in vivo; details: 5 μg/mouse/week intraperitoneal, week 4 to week 8.5; control 0 of 10; Fisher's exact test p=0.04
Description: The in vitro results described above indicate that TNF-alpha may be a strong physiological modifier of FIP2 that promotes the ADPKD disease phenotype at the organismal level. To test this hypothesis in vivo, 4 week old Pkd2+/− mice were directly injected intra-peritoneally with TNF-alpha (5 μg/mouse, 1 injection/wk) for 4 weeks. Pkd2 mutant mice (Pkd2-183) were kindly provided by Stephan Somlo (Yale University). For TNF-alpha (Genzyme Diagnostic, Cambridge, Mass.) treatment experiments, mice were intraperitoneally injected weekly, from week 4 (day 28) to week 8.5 (day 60), with 5 μg of TNF-alpha per mouse per week or phosphate buffered saline (PBS). 9-17 week old Pkd2+/− mice developed cysts at a frequency of 0.21. Accordingly, the natural frequency of cyst formation may be much lower in the 4 week olds.

[3] = tested on: cultured embryonic kidneys (E15.5); test: Mouse embryonic kidney organ culture cyst formation assay
Description: Embryonic kidneys were dissected in PBS (with calcium and magnesium) plus penicillin-streptomycin-glutamine (GiBCO, Grand Island, N.Y.) from embryos of wild type CD1 mice at E15.5, E16.5 or E17.5 and of C57BL/6 Pkd1+/− or C57BL/6 Pkd2+/− mice or their wild type counterparts at E15.5. The dissected kidneys were cultured at 37° C. in DMEM/F12 containing 2 mM L-glutamine, 10 mM Hepes, 5 μg/ml insulin, 5 μg/ml transferrin, […] selenium, 25 ng/ml prostaglandin E1, 32 pg/ml T3 and 250 IU/ml penicillin-streptomycin. The kidneys were cultured with or without TNF-alpha (Genzyme Diagnostic, Cambridge, Mass.) at different concentrations for 48 hours and then 50 μM 8-Bromo-cyclic AMP (Sigma, St. Louis, Mo.) was added for 5 days. The cultured kidneys were then fixed with 4% paraformaldehyde (PFA) in PBS for 6 hours, washed with PBS twice for 5 minutes each, and transferred to 70% EtOH for short-term storage at room temperature or for more extended storage at 4° C. The fixed kidney samples were subsequently processed for Hematoxylin and Eosin staining following a common histology protocol.
To test the effect of TNF-alpha treatment, the culture conditions were modified using E15.5 kidneys and a low concentration of cAMP, such that there was no cyst formation (0/32 kidneys observed) in the absence of TNF-alpha (see top panel FIGS. 2A and 2B). […] (FIG. 2B). […] Thus, in FIG. 2B, treatment with different concentrations of TNF-alpha for 5 days triggered cyst formation in Pkd2+/− cultured kidneys from E15.5 embryos.

[4] = tested on: TNF-alpha receptor (TNFR); test: Immunoblot of TNFR level in TNF-alpha treated IMCD cells; format: cell-based
Description: as §1, §2

[5] = tested on: PC2 localization in inner medullary collecting duct (IMCD) cells; test: Immunofluorescence of PC2 localization in IMCD cells after TNF-alpha induction; format: cell-based
Description: […] IMCD (ATCC catalog no. CRL-2123) cells were cultured in Dulbecco's modified Eagle's medium/F12 medium supplemented with 10% (v/v) fetal bovine serum (Invitrogen). Then, these cells were induced with TNF-alpha at a final concentration of 200 ng/ml. Immunofluorescence of the IMD cells was performed before and after 16 hours of TNF-alpha exposure.
Immunofluorescence was carried out as previously described. Li et al, Polycystin-1 and polycystin-2 regulate the cell cycle through the helix-loop-helix inhibitor Id2. Nat Cell Biol, 7(12):1202-12 (2005). Primary antibodies were used at the following dilutions: FIP2 (1:100), PC1 (1:500), PC2 (1:500), and flag (1:500). Secondary antibodies used included goat-anti-rabbit IgG-fluorescein isothiocyanate (Molecular Probes, Eugene, Oreg.) and goat-anti-mouse IgG-Texas Red (1:500 dilution; Molecular Probes). Images were captured on an inverted microscope (Axiovert 200M, Carl Zeiss, inc.) equipped with a spinning disc confocal head (Yogogawa), Argon-Krypton laser system (Prairie Technologies, Inc.), and ORCA-ER CCD camera (Hamamatsu). Images were acquired using the Metamorph software (Molecular Devices) and 3D image reconstruction was performed using the Volocity (Improvision, Inc.) software.
The disruption of PC2 localization by TNF-alpha was further confirmed using immunoprecipitation, western blotting, and a TUNEL Assay. […]

Pkd2+/- mice [6] = test: Cyst formation in Pkd2+/- mice treated with etanercept; format: in vivo; details: 25 μg/mouse/week, 10 weeks, n=14; PBS control 25% (n=16); Fisher's exact test p=0.05
Description: Chronic inhibition of FIP2 expression by a FIP2 inhibitor such as a TNF-alpha inhibitor may alleviate cyst formation. For the TNF-alpha inhibitor etanercept (AMGEN, Thousand Oaks, Calif.), treatment experiments, mice were intraperitoneally injected weekly, from week 8.5 (day 60) to week 18.5 (day 130), with 25 μg of etanercept per mouse per week or phosphate buffered saline (PBS).
To this end, 8-week old Pkd2+/− mice were treated with either etanercept […] administered at 25 μg/mouse/week), or phosphate buffered saline (PBS) in the control group. […] This frequency is consistent with that reported previously (21%, n=29). Remarkably, none of etanercept-treated mice developed kidney cysts (n=14).

[7] = tested on: PC2 localization in IMCD cells; test: Rescue of PC2 localization by FIP2 siRNA in TNF-alpha treated IMCD cells (immunostaining); format: cell-based
Description: (§3) RNAi specific to FIP2 was used to test if the effect of TNF-alpha on PC2 localization was FIP2-dependent. IMCD cells were transfected with siRNA specific for FIP2 to determine if FIP2 caused mislocalization of PC2 upon TNF-alpha induction.
(§4) The transfection was performed using the DharmaFECT siRNA transfection reagent (Dharmacon, Chicago, Ill.) according to the manufacturer's protocol.
In FIGS. 1C and 1 D, anti-PC2 antibodies (96525 FIG. 1C; YCC2 FIG. 1D) at a concentration of 1:500 were used to determine whether FIP2 siRNA reduces or eliminates FIP2 expression to restore PC2 localization in TNF-alpha treated IMCD cells.
(§5) In FIG. 7A, 4 different siRNAs against FIP2 were transfected into IMCD cells. In FIG. 7B, a Western blot was performed as described above using anti-FIP2 antibody to determine FIP2 levels in IMCD cells, which were transfected with siRNA#05 (SEQ ID NO: 2) and #08 (SEQ ID NO: 8) and then treated with TNF-alpha for 16 hours. In FIGS. 7C-7F, immunostaining was performed as described above with 96525 anti-PC2 antibody or YCC2 anti-PC2 antibody at a concentration of 1:500 with IMCD cells transfected with siRNA#08 (SEQ ID NO: 8) before and after TNF-alpha induction.

FIP2 [8] = test: FIP2 siRNA knock-down of FIP2 expression in IMCD cells (Western blot); format: cell-based; details: transfected IMCD cells, comparison of 4 siRNAs
Description: as §3, §4, §5

TNF-alpha was tested, and the “induction of FIP2 level” value (FIP2 [1]) was 2 fold, the “TUNEL staining (cell death)” value (IMCD cells) was “negative for TUNEL staining” and the “mice that developed unilateral cysts” value (Pkd2+/- mice [2]) was 4 of the 10. For the same substance, the “lowest TNF-alpha concentration resulting in cyst formation” value ([3]; Pkd2+/- embryonic kidneys, 5 days) was 1.5 ng/mL, the “cultured kidneys with cyst formation” value ([3]; wild type embryonic kidneys, 6.25-12.5 ng/ml TNF-alpha, five days, low cAMP) was 20/20 and the “lowest TNF-alpha concentration resulting in cyst formation” value ([3]; wild type embryonic kidneys, five days) was 6.25 ng/mL. For the same substance, the “increase of TNFR levels” value [4] was 35%, the “cells showing loss of PC2 staining at the plasma membrane and cilia” value ([5]; 200 ng/ml TNF-alpha, 16 hours, anti-PC2 antibody 96525) was 100% and the PC2 cilia localization ([5]; TNF-alpha 16 hr, YCC2 anti-PC2 antibody, confocal microscopy) was “loss of PC2 localization along the primary cilia”.
In the case of etanercept, the “mice that developed kidney cysts” value (Pkd2+/- mice [6]) was “none”.
“siRNA#08: siRNA against FIP2 (Dharmacon); sense SEQ ID NO: 7, antisense SEQ ID NO: 8 (sense CCAUGAAGCUAAAUAAUCAUU; antisense UGAUUAUUUAGCUUCAUGGUU; sense: RNA, backbone not given here; antisense: RNA, 5' {P}, backbone not given here)” was tested, and the “PC2 localization after TNF-alpha induction” value ([7]; immunostaining with 96525 anti-PC2 antibody) was “rescued the TNF-alpha effect on PC2 localization”, the “PC2 cilia localization after TNF-alpha induction” value ([7]; immunostaining with YCC2 anti-PC2 antibody) was “rescued the PC2 cilia localization” and the “effect on FIP2 expression” value (FIP2 [8]) was “strongest effect”.
